For this data set the following is noted: in water.

On to `O=Cc1ccccc1`, for which the solubility (mole fraction) (353.15 K) was 0.00236, the solubility (mole fraction) (363.15 K) was found to be 0.00261 and the solubility (mole fraction) (373.15 K) is 0.0036.
Consider `OCCc1ccccc1`, for which the solubility (mole fraction) by setting is: (333.15 K) 0.0051; (343.15 K) 0.0055; (353.15 K) 0.0056; (363.15 K) 0.0065; (373.15 K) 0.0065.
Consider `CCCCCC1CCC(=O)O1` (configuration not stated), for which the solubility (mole fraction) (323.15 K) was found to be 0.00072; the solubility (mole fraction) (333.15 K) is 0.00087; the solubility (mole fraction) (343.15 K) was determined as 0.00099; the solubility (mole fraction) (353.15 K) turned out to be 0.00109; the solubility (mole fraction) (363.15 K) is 0.00118; the solubility (mole fraction) (373.15 K) was found to be 0.00128.
On to `O=Cc1ccco1`, for which the solubility (mole fraction) by setting is: (353.15 K) 0.028; (363.15 K) 0.0314; (373.15 K) 0.034.

Values taken from BigSolDB 2.1.
